Test results taken from patent US20250114345A1, “COMPOUNDS AND COMPOSITIONS AS CBP/P300 DEGRADERS AND USES THEREOF” (Oncopia Therapeutics, Inc. d/b/a/ SK Life Science Labs, priority 2023, published 2025).

Columns and labels:
p300 = molecular target: T1, p300 (Homo sapiens, UniProt Q09472); experiment: P300 degradation, HiBit technology in A549 P300 HiBit cells (2 h); assay type: cell-based; conditions: 2 hrs post treatment; for Dmax: A549, A549 P300 HiBit cells; for DC50: A549 P300 HiBit cells
T1 construct: host or cells: A549 P300 HiBit cells
In short: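 A549 cells carrying HiBit-tagged p300 or CBP, seeded overnight at 37 °C/5% CO2, then treated with serial compound dilutions from 10 mM DMSO stocks. Incubation was 2 h for p300 and 24 h for CBP, followed by HiBit lytic detection reagent for 10 min at room temperature. Luminescence read gave degradation potency and Dmax.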

CBP = molecular target: T2, CBP (Homo sapiens, UniProt Q92793); experiment: CBP degradation, HiBit technology in A549 CBP HiBit cells (24 h); assay type: cell-based; conditions: 24 hrs post treatment
T2 construct: host or cells: A549 CBP HiBit cells
Protocol: p300 and CBP degradation potency and Dmax were determined using in cell western (ICW) assay technology in H1299 cells or HiBit technology in A549 HiBit cells.
A549 P300 HiBit and A549 CBP HiBit cells were plated in separate 384-well, TC treated, white-opaque, flat-bottomed microplate. Cells were plated at a cell density of 0.2×10^4 cells per well in assay media comprised of F-12K, 10% heat inactivated FBS, and 1% penicillin/streptomycin. Assay microplates containing HiBit cells were placed in a 37° C., 5% CO2, tissue culture incubator and left to equilibrate overnight. The next day cells were treated with serial dilutions of test compound made up of 10 mM stock solutions in DMSO. 384-Well plates containing treated cells were then placed back into a 37° C., 5% CO2, tissue culture incubator. Assay microplates containing A549 P300 HiBit cells were incubated for 2 hrs post treatment before P300 destruction was assessed, while microplates containing A549 CBP HiBit cells were incubated for 24 hrs post treatment before CBP destruction was determined. On the day of each assay time point, microplates were removed from the tissue culture incubator and prepared HiBit Lytic detection buffer (Promega, cat #N3O40) was added to each plate. Plates were covered with aluminum foil and incubated for ten minutes at room temperature on an orbital shaker. After incubation, luminescent signal of each plate was measured using the Envision instrument (Perkin Elmer).

T1 sequence (Q09472 whole entry): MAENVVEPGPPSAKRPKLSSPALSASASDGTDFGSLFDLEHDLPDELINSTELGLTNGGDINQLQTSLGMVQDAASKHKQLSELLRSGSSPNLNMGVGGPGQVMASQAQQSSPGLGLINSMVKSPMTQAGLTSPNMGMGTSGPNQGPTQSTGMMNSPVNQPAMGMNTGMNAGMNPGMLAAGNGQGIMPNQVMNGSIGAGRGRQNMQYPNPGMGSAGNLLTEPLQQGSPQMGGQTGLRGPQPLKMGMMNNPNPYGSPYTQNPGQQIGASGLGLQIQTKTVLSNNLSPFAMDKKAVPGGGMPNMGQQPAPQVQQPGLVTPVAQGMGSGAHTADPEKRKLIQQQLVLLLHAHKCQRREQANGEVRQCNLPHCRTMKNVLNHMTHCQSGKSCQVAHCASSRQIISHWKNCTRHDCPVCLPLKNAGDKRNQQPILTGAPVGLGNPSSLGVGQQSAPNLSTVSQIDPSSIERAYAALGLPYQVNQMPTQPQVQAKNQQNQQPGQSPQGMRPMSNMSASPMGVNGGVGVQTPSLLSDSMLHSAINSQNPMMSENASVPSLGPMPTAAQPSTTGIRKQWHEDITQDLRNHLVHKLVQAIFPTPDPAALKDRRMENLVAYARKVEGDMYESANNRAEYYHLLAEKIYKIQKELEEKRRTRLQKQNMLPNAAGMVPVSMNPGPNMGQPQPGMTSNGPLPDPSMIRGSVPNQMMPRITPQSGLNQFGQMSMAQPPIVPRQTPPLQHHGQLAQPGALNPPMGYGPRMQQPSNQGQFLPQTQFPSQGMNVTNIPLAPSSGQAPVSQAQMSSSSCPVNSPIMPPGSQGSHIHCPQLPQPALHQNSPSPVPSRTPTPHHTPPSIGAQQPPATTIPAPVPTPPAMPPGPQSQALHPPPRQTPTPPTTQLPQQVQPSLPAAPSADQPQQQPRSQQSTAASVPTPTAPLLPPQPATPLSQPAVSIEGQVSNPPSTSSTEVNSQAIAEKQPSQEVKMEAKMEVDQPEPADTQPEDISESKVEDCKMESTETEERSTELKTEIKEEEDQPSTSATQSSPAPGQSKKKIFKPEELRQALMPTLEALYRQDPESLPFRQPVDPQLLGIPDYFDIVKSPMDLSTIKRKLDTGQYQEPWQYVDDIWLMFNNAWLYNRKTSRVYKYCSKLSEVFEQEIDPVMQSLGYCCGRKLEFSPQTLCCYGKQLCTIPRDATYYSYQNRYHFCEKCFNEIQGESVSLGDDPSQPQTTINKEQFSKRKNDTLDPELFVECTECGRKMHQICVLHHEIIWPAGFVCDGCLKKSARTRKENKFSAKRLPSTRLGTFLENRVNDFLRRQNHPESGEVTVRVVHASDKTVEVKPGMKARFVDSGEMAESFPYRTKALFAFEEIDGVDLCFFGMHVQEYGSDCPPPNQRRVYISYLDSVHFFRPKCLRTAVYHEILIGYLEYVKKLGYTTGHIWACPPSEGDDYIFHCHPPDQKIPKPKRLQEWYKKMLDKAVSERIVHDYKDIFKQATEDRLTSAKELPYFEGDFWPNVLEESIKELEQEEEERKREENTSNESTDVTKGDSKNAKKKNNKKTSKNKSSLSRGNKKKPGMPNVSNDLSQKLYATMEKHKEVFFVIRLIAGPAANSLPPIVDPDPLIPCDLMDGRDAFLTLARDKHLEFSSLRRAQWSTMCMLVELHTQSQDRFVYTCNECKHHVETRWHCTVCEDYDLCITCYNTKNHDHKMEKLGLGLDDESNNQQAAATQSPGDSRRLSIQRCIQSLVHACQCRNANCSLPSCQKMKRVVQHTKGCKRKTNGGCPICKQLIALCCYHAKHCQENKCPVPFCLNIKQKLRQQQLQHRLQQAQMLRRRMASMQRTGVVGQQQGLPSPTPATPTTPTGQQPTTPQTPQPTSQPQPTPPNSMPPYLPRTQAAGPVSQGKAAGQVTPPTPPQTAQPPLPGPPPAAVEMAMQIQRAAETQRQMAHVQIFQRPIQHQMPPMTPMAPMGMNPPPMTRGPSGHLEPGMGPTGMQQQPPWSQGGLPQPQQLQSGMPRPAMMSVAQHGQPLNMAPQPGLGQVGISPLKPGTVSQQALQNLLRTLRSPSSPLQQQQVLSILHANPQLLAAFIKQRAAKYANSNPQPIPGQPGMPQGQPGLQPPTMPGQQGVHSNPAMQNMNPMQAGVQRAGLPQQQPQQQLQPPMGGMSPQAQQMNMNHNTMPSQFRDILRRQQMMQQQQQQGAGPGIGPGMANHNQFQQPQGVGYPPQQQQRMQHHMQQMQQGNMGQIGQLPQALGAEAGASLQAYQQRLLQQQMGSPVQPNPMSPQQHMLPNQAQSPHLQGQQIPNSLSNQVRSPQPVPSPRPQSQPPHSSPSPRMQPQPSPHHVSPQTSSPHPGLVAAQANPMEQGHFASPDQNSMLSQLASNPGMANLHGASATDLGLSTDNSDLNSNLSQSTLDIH
T2 sequence (Q92793 whole entry): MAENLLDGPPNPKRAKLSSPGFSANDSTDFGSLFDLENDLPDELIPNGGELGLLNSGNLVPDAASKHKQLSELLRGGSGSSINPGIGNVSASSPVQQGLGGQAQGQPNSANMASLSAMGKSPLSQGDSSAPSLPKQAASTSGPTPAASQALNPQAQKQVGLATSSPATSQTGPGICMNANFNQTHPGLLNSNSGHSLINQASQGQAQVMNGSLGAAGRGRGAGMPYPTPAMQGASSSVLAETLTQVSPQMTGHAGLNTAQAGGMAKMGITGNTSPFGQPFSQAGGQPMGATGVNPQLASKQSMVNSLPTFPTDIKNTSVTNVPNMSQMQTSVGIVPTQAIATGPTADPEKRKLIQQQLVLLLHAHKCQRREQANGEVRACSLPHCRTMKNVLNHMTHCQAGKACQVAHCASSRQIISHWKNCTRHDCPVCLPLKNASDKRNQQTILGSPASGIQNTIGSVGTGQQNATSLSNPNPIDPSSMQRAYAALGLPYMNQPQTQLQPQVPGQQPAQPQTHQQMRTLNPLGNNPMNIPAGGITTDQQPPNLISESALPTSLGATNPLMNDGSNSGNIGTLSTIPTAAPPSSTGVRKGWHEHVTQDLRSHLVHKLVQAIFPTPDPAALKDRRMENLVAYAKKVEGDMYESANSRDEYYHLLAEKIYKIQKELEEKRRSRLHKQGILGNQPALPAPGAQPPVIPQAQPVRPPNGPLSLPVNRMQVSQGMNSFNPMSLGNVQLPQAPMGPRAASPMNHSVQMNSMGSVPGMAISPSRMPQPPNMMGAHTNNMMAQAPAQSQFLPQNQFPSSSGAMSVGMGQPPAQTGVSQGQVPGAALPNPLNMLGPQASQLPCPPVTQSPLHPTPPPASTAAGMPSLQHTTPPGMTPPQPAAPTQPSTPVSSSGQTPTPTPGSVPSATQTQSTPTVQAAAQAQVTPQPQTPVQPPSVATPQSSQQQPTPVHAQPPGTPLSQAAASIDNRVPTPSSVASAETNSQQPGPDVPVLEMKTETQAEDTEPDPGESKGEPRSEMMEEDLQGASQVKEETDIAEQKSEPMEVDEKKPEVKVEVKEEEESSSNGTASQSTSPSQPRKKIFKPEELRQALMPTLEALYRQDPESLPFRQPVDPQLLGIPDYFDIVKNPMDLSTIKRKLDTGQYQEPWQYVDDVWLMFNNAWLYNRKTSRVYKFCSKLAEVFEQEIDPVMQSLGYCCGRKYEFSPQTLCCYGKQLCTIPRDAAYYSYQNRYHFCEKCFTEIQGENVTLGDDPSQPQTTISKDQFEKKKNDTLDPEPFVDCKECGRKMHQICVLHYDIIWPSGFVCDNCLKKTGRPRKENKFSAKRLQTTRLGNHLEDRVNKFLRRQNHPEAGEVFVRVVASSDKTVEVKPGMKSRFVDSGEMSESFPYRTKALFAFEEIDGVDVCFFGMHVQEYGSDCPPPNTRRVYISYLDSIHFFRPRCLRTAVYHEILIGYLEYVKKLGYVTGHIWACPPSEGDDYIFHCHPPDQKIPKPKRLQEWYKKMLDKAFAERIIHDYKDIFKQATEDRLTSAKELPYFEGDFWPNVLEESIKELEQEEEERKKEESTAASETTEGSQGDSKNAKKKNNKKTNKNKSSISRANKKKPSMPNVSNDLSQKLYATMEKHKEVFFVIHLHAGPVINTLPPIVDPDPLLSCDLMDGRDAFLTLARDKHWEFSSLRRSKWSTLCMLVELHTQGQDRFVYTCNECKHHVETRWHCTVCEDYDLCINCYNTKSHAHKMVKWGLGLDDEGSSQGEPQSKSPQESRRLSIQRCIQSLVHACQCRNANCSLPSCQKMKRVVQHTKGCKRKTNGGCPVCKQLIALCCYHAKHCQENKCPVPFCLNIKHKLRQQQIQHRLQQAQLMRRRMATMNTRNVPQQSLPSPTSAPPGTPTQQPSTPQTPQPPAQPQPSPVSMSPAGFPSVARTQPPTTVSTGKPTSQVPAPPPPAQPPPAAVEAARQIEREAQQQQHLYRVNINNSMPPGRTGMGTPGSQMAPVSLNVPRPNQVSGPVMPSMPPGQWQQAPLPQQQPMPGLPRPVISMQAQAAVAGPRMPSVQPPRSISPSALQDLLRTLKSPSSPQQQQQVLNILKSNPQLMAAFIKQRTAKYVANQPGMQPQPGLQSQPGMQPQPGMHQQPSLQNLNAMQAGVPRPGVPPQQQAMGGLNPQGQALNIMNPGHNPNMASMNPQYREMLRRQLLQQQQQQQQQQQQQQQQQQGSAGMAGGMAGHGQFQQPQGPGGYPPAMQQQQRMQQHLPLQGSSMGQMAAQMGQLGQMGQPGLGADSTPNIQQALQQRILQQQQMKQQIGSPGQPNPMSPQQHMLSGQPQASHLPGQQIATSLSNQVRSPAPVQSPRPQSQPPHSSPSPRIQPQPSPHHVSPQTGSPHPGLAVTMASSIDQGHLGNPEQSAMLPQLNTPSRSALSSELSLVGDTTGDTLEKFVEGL

SMILES | Dmax (p300) [%] | DC50 (p300) [nM] | DC50 (CBP) [nM] | Dmax (CBP) [%]
CC(C)c1cc(-c2cccc3cc(-c4ccc(C(=O)NCC#Cc5cccc(NC67CC(C6)C(=O)NC7=O)c5)nc4)ncc23)cc2c1n(C)c(=O)n2C [Example A2, N-(3-(3-((2,4-Dioxo-3-azabicyclo[3.1.1]heptan-1-yl)amino)phenyl)prop-2-yn-1-yl)-5-(8-(7-isopropyl-1,3-dimethyl-2-oxo-2,3-dihydro-1H-benzo[d]imidazol-5-yl)isoquinolin-3-yl)picolinamide] | > 80 | 10 to 99 | > 1000 | < 20
CC(C)c1cc(-c2cccc3cc(-c4ccc(C(=O)NC/C=C/c5cc(NC6CCC(=O)NC6=O)nn5C)nc4)ncc23)cc2c1n(C)c(=O)n2C (stereo not drawn) [Example A16, (E)-N-(3-(3-((2,6-Dioxopiperidin-3-yl)amino)-1-methyl-1H-pyrazol-5-yl)allyl)-5-(8-(7-isopropyl-1,3-dimethyl-2-oxo-2,3-dihydro-1H-benzo[d]imidazol-5-yl)isoquinolin-3-yl)picolinamide] | 20 to 39 | 1 to 9.9 | > 1000 | < 20
CC(C)c1cc(-c2cccc3cc(-c4ccc(C(=O)NCC#Cc5cc(NC6CCC(=O)NC6=O)nn5C)nc4)ncc23)cc2c1n(C)c(=O)n2C (stereo not drawn) [Example A24, N-(3-(3-((2,6-Dioxopiperidin-3-yl)amino)-1-methyl-1H-pyrazol-5-yl)prop-2-yn-1-yl)-5-(8-(7-isopropyl-1,3-dimethyl-2-oxo-2,3-dihydro-1H-benzo[d]imidazol-5-yl)isoquinolin-3-yl)picolinamide] | > 80 | < 1 | > 1000 | < 20
CC(C)c1cc(-c2cccc3cc(-c4ccc(C(=O)NCC#Cc5ccc6ncc(C7CCC(=O)NC7=O)n6c5)nc4)ncc23)cc2c1n(C)c(=O)n2C (stereo not drawn) [Example A25, N-(3-(3-(2,6-Dioxopiperidin-3-yl)imidazo[1,2-a]pyridin-6-yl)prop-2-yn-1-yl)-5-(8-(7-isopropyl-1,3-dimethyl-2-oxo-2,3-dihydro-1H-benzo[d]imidazol-5-yl)isoquinolin-3-yl)picolinamide] | > 80 | < 1 | 100 to 999 | < 20
CC(C)c1cc(-c2cccc3cc(-c4ccc(C(=O)NCC#Cc5cc(OC6CCC(=O)NC6=O)nn5C)nc4)ncc23)cc2c1n(C)c(=O)n2C (stereo not drawn) [Example A29, N-(3-(3-((2,6-Dioxopiperidin-3-yl)oxy)-1-methyl-1H-pyrazol-5-yl)prop-2-yn-1-yl)-5-(8-(7-isopropyl-1,3-dimethyl-2-oxo-2,3-dihydro-1H-benzo[d]imidazol-5-yl)isoquinolin-3-yl)picolinamide] | > 80 | 1 to 9.9 | > 1000 | < 20
Cc1cc(-c2cc3cccc(-c4cc(C(C)C)c5c(c4)n(C)c(=O)n5C)c3cn2)cnc1C(=O)NCC#Cc1ccc2occ(C3CCC(=O)NC3=O)c2c1 (stereo not drawn) [Example A35, N-(3-(3-(2,6-Dioxopiperidin-3-yl)benzofuran-5-yl)prop-2-yn-1-yl)-5-(8-(7-isopropyl-1,3-dimethyl-2-oxo-2,3-dihydro-1H-benzo[d]imidazol-5-yl)isoquinolin-3-yl)-3-methylpicolinamide] | – | – | 10 to 99 | 20 to 39

Now from value to molecule:

Dmax (p300) [%] | DC50 (p300) [nM] | DC50 (CBP) [nM] | Dmax (CBP) [%] | SMILES
> 80 | 1 to 9.9 | 10 to 99 | 40 to 59 | CC(C)c1cc(-c2cccc3cc(-c4ccc(C(=O)NCC#Cc5ccc6cnn(C7CCC(=O)NC7=O)c6c5F)nc4)ncc23)cc2c1n(C)c(=O)n2C (stereo not drawn) [Example A1, N-(3-(1-(2,6-Dioxopiperidin-3-yl)-7-fluoro-1H-indazol-6-yl)prop-2-yn-1-yl)-5-(8-(7-isopropyl-1,3-dimethyl-2-oxo-2,3-dihydro-1H-benzo[d]imidazol-5-yl)isoquinolin-3-yl)picolinamide]
> 80 | < 1 | > 1000 | < 20 | CC(C)c1cc(-c2cccc3cc(-c4ccc(C(=O)NCC#Cc5ccc6nnn(C7CCC(=O)NC7=O)c6c5)nc4)ncc23)cc2c1n(C)c(=O)n2C (stereo not drawn) [Example A3, N-(3-(1-(2,6-Dioxopiperidin-3-yl)-1H-benzo[d][1,2,3]triazol-6-yl)prop-2-yn-1-yl)-5-(8-(7-isopropyl-1,3-dimethyl-2-oxo-2,3-dihydro-1H-benzo[d]imidazol-5-yl)isoquinolin-3-yl)picolinamide]
> 80 | 1 to 9.9 | 10 to 99 | > 80 | CC(C)c1cc(-c2cccc3cc(-c4ccc(C(=O)NCC#Cc5ccc6c(c5)c(C5CCC(=O)NC5=O)nn6C)nc4)ncc23)cc2c1n(C)c(=O)n2C (stereo not drawn) [Example A5, N-(3-(3-(2,6-Dioxopiperidin-3-yl)-1-methyl-1H-indazol-5-yl)prop-2-yn-1-yl)-5-(8-(7-isopropyl-1,3-dimethyl-2-oxo-2,3-dihydro-1H-benzo[d]imidazol-5-yl)isoquinolin-3-yl)picolinamide]
60 to 79 | 10 to 99 | > 1000 | < 20 | CC(C)c1cc(-c2cccc3cc(-c4ccc(C(=O)NCC#Cc5ccc6ccnc(C7CCC(=O)NC7=O)c6c5)nc4)ncc23)cc2c1n(C)c(=O)n2C (stereo not drawn) [Example A10, N-(3-(1-(2,6-Dioxopiperidin-3-yl)isoquinolin-7-yl)prop-2-yn-1-yl)-5-(8-(7-isopropyl-1,3-dimethyl-2-oxo-2,3-dihydro-1H-benzo[d]imidazol-5-yl)isoquinolin-3-yl)picolinamide]
> 80 | 1 to 9.9 | 10 to 99 | 20 to 39 | CC(C)c1cc(-c2cccc3cc(-c4ccc(C(=O)NCC#Cc5ccc6cnn(C7CCC(=O)NC7=O)c6c5)nc4)ncc23)cc2c1n(C)c(=O)n2C (stereo not drawn) [Example A11, N-(3-(1-(2,6-Dioxopiperidin-3-yl)-1H-indazol-6-yl)prop-2-yn-1-yl)-5-(8-(7-isopropyl-1,3-dimethyl-2-oxo-2,3-dihydro-1H-benzo[d]imidazol-5-yl)isoquinolin-3-yl)picolinamide]
> 80 | 1 to 9.9 | 10 to 99 | 60 to 79 | CC(C)c1cc(-c2cccc3cc(-c4ccc(C(=O)NCC#Cc5ccc6oc(=O)n(C7CCC(=O)NC7=O)c6c5)nc4)ncc23)cc2c1n(C)c(=O)n2C (stereo not drawn) [Example A14, N-(3-(3-(2,6-Dioxopiperidin-3-yl)-2-oxo-2,3-dihydrobenzo[d]oxazol-5-yl)prop-2-yn-1-yl)-5-(8-(7-isopropyl-1,3-dimethyl-2-oxo-2,3-dihydro-1H-benzo[d]imidazol-5-yl)isoquinolin-3-yl)picolinamide]
> 80 | < 1 | > 1000 | < 20 | CC(C)c1cc(-c2cccc3cc(-c4ccc(C(=O)NCC#Cc5ccc6ncn(C7CCC(=O)NC7=O)c6c5)nc4)ncc23)cc2c1n(C)c(=O)n2C (stereo not drawn) [Example A15, N-(3-(1-(2,6-Dioxopiperidin-3-yl)-1H-benzo[d]imidazol-6-yl)prop-2-yn-1-yl)-5-(8-(7-isopropyl-1,3-dimethyl-2-oxo-2,3-dihydro-1H-benzo[d]imidazol-5-yl)isoquinolin-3-yl)picolinamide]
> 80 | 1 to 9.9 | 10 to 99 | 60 to 79 | CC(C)c1cc(-c2cccc3cc(-c4ccc(C(=O)NCC#Cc5ccc6c(c5)n(C5CCC(=O)NC5=O)c(=O)n6C)nc4)ncc23)cc2c1n(C)c(=O)n2C (stereo not drawn) [Example A18, N-(3-(3-(2,6-Dioxopiperidin-3-yl)-1-methyl-2-oxo-2,3-dihydro-1H-benzo[d]imidazol-5-yl)prop-2-yn-1-yl)-5-(8-(7-isopropyl-1,3-dimethyl-2-oxo-2,3-dihydro-1H-benzo[d]imidazol-5-yl)isoquinolin-3-yl)picolinamide]
> 80 | 1 to 9.9 | > 1000 | < 20 | CC(C)c1cc(-c2cccc3cc(-c4ccc(C(=O)NCC#Cc5ccc6occ(C7CCC(=O)NC7=O)c6c5)nc4)ncc23)cc2c1n(C)c(=O)n2C (stereo not drawn) [Example A23, N-(3-(3-(2,6-Dioxopiperidin-3-yl)benzofuran-5-yl)prop-2-yn-1-yl)-5-(8-(7-isopropyl-1,3-dimethyl-2-oxo-2,3-dihydro-1H-benzo[d]imidazol-5-yl)isoquinolin-3-yl)picolinamide]
– | – | > 1000 | < 20 | CC(C)c1cc(-c2cccc3cc(-c4ccc(C(=O)NCC#Cc5ccc6c(c5)n(C)c(=O)n6C5CCC(=O)NC5=O)nc4)ncc23)cc2c1n(C)c(=O)n2C (stereo not drawn) [Example A36, N-(3-(1-(2,6-Dioxopiperidin-3-yl)-3-methyl-2-oxo-2,3-dihydro-1H-benzo[d]imidazol-5-yl)prop-2-yn-1-yl)-5-(8-(7-isopropyl-1,3-dimethyl-2-oxo-2,3-dihydro-1H-benzo[d]imidazol-5-yl)isoquinolin-3-yl)picolinamide]
